System: Human urothelial T24 cells
Test: WST-1 cell viability assay, 4-HC-induced loss of T24 viability
Type: cell-based
Conditions: 37.5 μM 4-HC for 4 h, WST-1 assay, n=3
Protocol: FIGS. 2A to 2D illustrate the CeNPs testing with human urothelial T24 cells in vitro. FIG. 2A illustrates that T24 cells were treated with 4-HC at concentrations of 0, 12.5, 25, 37.5, 50, 75, and 100 μM for 4 h (hours). Cell viability was examined utilizing the WST-1 assay (MK400, Takara, Mountain View, CA, USA).
FIG. 2B illustrates that 4-HC-induced loss of T24 viability was rescued by cerium oxide nanoparticle (CeNP) treatment (n=3). […] Fluorescence microscope images of the groups: (1) control group; (2) only 4-HC group: 37.5 μM 4-HC added for 4 h to induce cell oxidative stress; (3) CeNP treatment group: 5 μg/mL CeNPs were applied for 24 h before 4-h induction with 37.5 μM 4-HC; and (4) CeNP-only group: only 5 μg/mL CeNPs were applied for 24 h. […] Values are expressed as the mean±SD. Data were analyzed by one-way analysis of variance with Tukey's multiple comparisons test. *P<0.05, **P<0.01. n.s.: no statistical difference, (n=3).
Human urothelial T24 cells (#60062, BCRC, Taiwan) were cultured in 90% McCoy's 5a medium (Sigma, St. Louis, MO, USA) with 1.5 mM L-glutamine, 10% (v/v) fetal bovine serum, and 1% (v/v) PS. Cells were maintained at 37° C. in a humidified incubator containing 5% CO2 [6], and 4-HC was used to induce cellular oxidative stress. T24 cells were seeded into a 96-well plate at a density of 10^4 cells/well and incubated for 24 h until full adhesion was achieved. […]

## O=P1(N(CCCl)CCCl)NC(OO)CCO1 (stereo not shown) [4-HC, 4-hydroperoxycyclophosphamide]
  cell viability of T24 cells: approximately 50%

From patent publication US12521414B2, “Method for preventing or treating urological chronic pelvic pain syndrome” (priority 2022, dated 2026)
